Legend:
in vivo [1] = conditions: rat, iv, 3 mg/kg
in vivo [2] = conditions: rat, po, 10 mg/kg
in vivo [3] = conditions: rat, po, 10 mg/kg; remark: listed apart in the source
in vivo [4] = conditions: rat, iv, 3 mg/kg; remark: listed apart in the source
in vivo [5] = conditions: rat, po, 10 mg/kg; remark: listed apart in the source
in vivo [6] = conditions: rat, po, 10 mg/kg; remark: listed apart in the source
in vivo [7] = conditions: rat, po, 10 mg/kg; remark: listed apart in the source
in vivo [8] = conditions: rat, iv, 3 mg/kg; remark: listed apart in the source
in vivo [9] = conditions: rat, iv, 3 mg/kg; remark: listed apart in the source

| clearance (in vivo [1]) | Tmax (in vivo [2]) | Cmax (in vivo [3]) | half-life (in vivo [4]) | half-life (in vivo [5]) | AUC(0-t) (in vivo [6]) | bioavailability (in vivo [7]) | AUC(0-t) (in vivo [8]) | Vd (in vivo [9]) | Structure (SMILES) |
| --- | --- | --- | --- | --- | --- | --- | --- | --- | --- |
| 74.6 mL/min/kg | 0.5 h | 23.8 ng/mL | 4.88 h | 6.46 h | 157 ng·h/mL | 7.43% | 667 ng·h/mL | 17.8 L/kg | CN1CCC[C@@H]1/C=C/C(=O)Nc1ccc2ncnc3c2c1CCN3c1ccc(OCc2ccccn2)c(Cl)c1 |
| 38.4 mL/min/kg | 3.67 h | 124 ng/mL | 3.81 h | 4.1 h | 1300 ng·h/mL | 30.4% | 1290 ng·h/mL | 8.1 L/kg | CN(C)C/C=C/C(=O)Nc1ccc2ncnc(Nc3ccc(OCc4ccccn4)c(Cl)c3)c2c1-c1ccccc1 |
| 20.8 mL/min/kg | – | – | – | – | – | 18.2% | – | 5.01 L/kg | CCOc1cc2ncc(C#N)c(Nc3ccc(OCc4ccccn4)c(Cl)c3)c2cc1NC(=O)/C=C/CN(C)C [NERATINIB] |

— ChEMBL document CHEMBL5543120, “Discovery of Novel 5,6-Dihydro-4H-pyrido[2,3,4-de]quinazoline Irreversible Inhibitors Targeting Both Wild-Type and A775_G776insYVMA Mutated HER2 Kinases” (J Med Chem, 2024)
